Results from PubChem BioAssay AID1996.
In brackets after ≈: the same amount, converted by molar mass.

Details: buffer; pH 7.4; 200.0 µM

| SMILES | solubility kinetic |
| --- | --- |
| COc1ccc(OCc2nc(-c3ccc(F)c(F)c3)cs2)cc1 | < 0.7 µg/mL |
| NC(=O)C1CCN(c2nc3ccccc3nc2NS(=O)(=O)c2ccc(Br)cc2)CC1 | 53.9 µg/mL (≈ 110 µM) |
| CCCOC(=O)Cn1cnc2scc(-c3ccc(C)cc3)c2c1=O | 17.2 µg/mL (≈ 50.2 µM) |
| Cc1ccc(N(C(=O)Nc2ccccc2)C2=NCCC2)cc1 | 4.5 µg/mL (≈ 15.3 µM) |
| COc1ccccc1OCCNC(=O)CC(NC(C)=O)c1ccccc1 (stereo unspecified) | 53.4 µg/mL (≈ 150 µM) |
| O=C1c2cccc3cccc(c23)C(=O)N1c1ccc(O)cc1 | < 0.6 µg/mL |
| COc1cc(N2Cc3ccccc3C2)ccc1C=O | 1.8 µg/mL (≈ 7.11 µM) |
| Cn1c(NC2CCCCC2)cc(=O)n(C)c1=O | > 35.6 µg/mL |
| Cc1ccc(/C(O)=C/C(=O)C(=O)NC23CC4CC(CC(C4)C2)C3)cc1 | 8.4 µg/mL (≈ 24.7 µM) |
| NS(=O)(=O)c1cc(C(=O)OC2CCOC2=O)ccc1Cl (stereo unspecified) | > 48 µg/mL |
| Cc1cc(C)cc(NC(=O)COC(=O)CC2CCCC2)c1 | 21.1 µg/mL (≈ 72.9 µM) |
| Cc1nc(Cl)sc1C(=O)Nc1cccc(Cl)c1 | 34.8 µg/mL (≈ 121 µM) |
| CCc1ccnc(NS(=O)(=O)c2ccc3c(c2)CCO3)c1 | 17.6 µg/mL (≈ 57.8 µM) |
| Cc1ccc(C(=O)CNc2ccc(C)cc2C)cc1 | 2.8 µg/mL (≈ 11.1 µM) |
| COc1ccccc1NS(=O)(=O)c1cccc2nsnc12 | 35 µg/mL (≈ 109 µM) |
| FC(F)(F)c1cnc(N2CCSCC2)c(Cl)c1 | < 0.3 µg/mL |
| CC(C)Cn1cnc2c1c(=O)n(C)c(=O)n2C | > 35.4 µg/mL |
| O=C(CCS(=O)(=O)c1ccc(F)cc1)N1CCOCC1 | > 45.2 µg/mL |
| CN1CC(=O)N(CC(=O)Nc2ccc(OCc3ccccc3)cc2)C1=O | 45.7 µg/mL (≈ 129 µM) |
| Cc1ccccc1C(C)NS(=O)(=O)c1ccc2c(c1)OCCO2 (stereo unspecified) | > 50 µg/mL |
| CC(=O)c1ccc(NC(=O)Cc2cccs2)cc1 | 37.2 µg/mL (≈ 143 µM) |

| SMILES | solubility kinetic |
| --- | --- |
| CCNC(=O)Nc1cc(OC)c(OC)cc1C(=O)O | > 40.2 µg/mL |
| N#Cc1ccsc1NC(=O)c1ccc(Cl)c([N+](=O)[O-])c1 | 2.9 µg/mL (≈ 9.42 µM) |
| COc1ccc(C(=O)COC(=O)c2ccccn2)c(OC)c1 | > 45.2 µg/mL |
| CCN1C(=O)CC(N2CCC(C(=O)N3CCCCCC3)CC2)C1=O (stereo unspecified) | > 50.3 µg/mL |
| CCOC(=O)C1CCCN(Cc2cc(=O)oc3cc(C)c(C)cc23)C1 (stereo unspecified) | 23.1 µg/mL (≈ 67.3 µM) |
| C=CCN(c1ccccc1)S(=O)(=O)c1cccc2cccnc12 | 34.9 µg/mL (≈ 108 µM) |
| Cc1ccc2nc(SCC(=O)Nc3nonc3C)[nH]c2c1 | > 45.5 µg/mL |
| NS(=O)(=O)c1ccc(CNC(=O)C(c2ccccc2)c2ccccc2)cc1 | 56.1 µg/mL (≈ 147 µM) |
| CCOC(=O)Cc1cc(=O)[nH]c(/N=C(\N)Nc2ccc(C)c(C)c2)n1 | 2.1 µg/mL (≈ 6.12 µM) |
| Cc1c(CCO)c(=O)n2c([nH]c3ccccc32)c1C#N | 19 µg/mL (≈ 71.1 µM) |
| CN1C2CCC1CC(OC(c1ccccc1)c1ccccc1N)C2 (stereo unspecified) | > 48.4 µg/mL |
| Cl.NC(=NCc1ccccc1)c1cccc([N+](=O)[O-])c1 | > 43.8 µg/mL |
| Nc1ccc2oc(=O)c(-c3ccccc3)cc2c1 | 19.3 µg/mL (≈ 81.3 µM) |
| CCOc1ccc(NC(=O)COC(=O)c2ccc3c(c2)OCO3)cc1 | 4 µg/mL (≈ 11.7 µM) |
| O=C1CCC(C(=O)Nc2cccc(Br)c2)N1 (stereo unspecified) | > 42.5 µg/mL |
| OCc1nc2c(ccc3ccccc32)[nH]1 | > 29.7 µg/mL |
| O=C(OCC(=O)N1CCOCC1)c1ccccc1OCc1ccc(Cl)cc1 | > 58.5 µg/mL |
| CSCCC(NC(=O)/C(=C/c1ccco1)NC(=O)c1ccco1)C(=O)O (stereo unspecified) | > 56.8 µg/mL |
| Cc1cccnc1N1C(=O)c2ccc(C(=O)O)cc2C1=O | > 42.3 µg/mL |
| O=C(NCCc1ccccc1)C1CCN(Cc2cccc3ccccc23)CC1 | 6.2 µg/mL (≈ 16.6 µM) |
| Cc1cccc(N2C(S)=C(C#N)C(=O)NC2c2ccco2)c1 (stereo unspecified) | > 46.7 µg/mL |

| SMILES | solubility kinetic |
| --- | --- |
| CCNCc1ccc(OCc2cccs2)c(OCC)c1 | > 43.7 µg/mL |
| CC1CCC(NC(=O)CCN2C(=O)C3CC=CCC3C2=O)CC1 (stereo unspecified) | > 47.8 µg/mL |
| Cc1cc(C)cc(C(=O)Nc2ccc(N3CCCC3)cc2)c1 | 0.7 µg/mL (≈ 2.38 µM) |
| O=C1CSC(c2ccc([N+](=O)[O-])cc2)N1Cc1ccccc1 (stereo unspecified) | 32.5 µg/mL (≈ 103 µM) |
| O=C(COC(=O)/C=C/c1ccc([N+](=O)[O-])cc1)NCc1ccco1 | 1.5 µg/mL (≈ 4.54 µM) |
| Cc1ccc(N2C(=O)N(CC(=O)Nc3ccc([N+](=O)[O-])cc3)C(=O)C2C)cc1 (stereo unspecified) | 6 µg/mL (≈ 15.7 µM) |
| CC(=O)Nc1ccc(NC(=O)CCSCCc2ccccn2)cc1 | > 51.5 µg/mL |
| CC1=C(C(=O)OCC2CCCCC2)C(c2ccc(F)cc2)NC(=O)N1 (stereo unspecified) | 0.5 µg/mL (≈ 1.44 µM) |
| Cc1ccc(C(=O)OCC(=O)NC2CCCCC2)s1 | > 42.2 µg/mL |
| O=C(NC1CCN(Cc2ccccc2)CC1)c1ccccc1 | > 44.2 µg/mL |
| COc1ccc(C(=O)O)cc1S(=O)(=O)NCCN(C)C | 44.1 µg/mL (≈ 146 µM) |
| CN(C)c1ccc(C(=O)OCC(=O)N2CCCCCC2)cc1 | 33.9 µg/mL (≈ 111 µM) |
| CC(=O)c1cccc(Oc2ncccn2)c1 | > 32.1 µg/mL |
| Cc1ccc(NC(=O)CN(C)C(=O)c2ccc(Cl)nc2)cc1 | > 47.7 µg/mL |
| O=C(Nc1ccccc1O)c1csc2c1CCCC2 | 2.2 µg/mL (≈ 8.05 µM) |
| CCC(=O)NCc1csc(-c2cccs2)n1 | > 37.9 µg/mL |
| O=[N+]([O-])c1cnc(Nc2ccccc2)nc1Nc1ccccc1 | 0.2 µg/mL (≈ 0.651 µM) |
| Cc1cccn2c(=O)c(C=O)c(N3CCN(C)CC3)nc12 | > 42.9 µg/mL |
| COc1ccccc1NC(=O)/C=C\c1ccco1 | 25.8 µg/mL (≈ 106 µM) |
